Laboratory results published in ChEMBL document CHEMBL4130470, “Lipid lowering agents of natural origin: An account of some promising chemotypes” (2017).

Tests used:
Homo sapiens [1] = species: Homo sapiens; experiment: Increase in HDL-C in human at 500 mg/day; type: functional
Homo sapiens [2] = species: Homo sapiens; experiment: Reduction in total cholesterol in human at 500 mg/day; type: functional; parameters: scale not given: the % may be the effect or the level left
Homo sapiens [3] = species: Homo sapiens; experiment: Reduction in serum lipid peroxides in human at 500 mg/day; type: functional; parameters: scale not given: the % may be the effect or the level left
Hamster [4] = experiment: Reduction in serum total cholesterol level hyperlipidemic hamster relative to untreated control; type: functional, Cricetinae; parameters: scale not given: the % may be the effect or the level left
Homo sapiens [5] = experiment: Reduction in LDL-C level in hypercholesterolemic patient dosed for 3 months; type: functional; parameters: scale not given: the % may be the effect or the level left
Homo sapiens [6] = experiment: Reduction in triglyceride level in hypercholesterolemic patient dosed for 3 months; type: functional; parameters: scale not given: the % may be the effect or the level left
Hamster [7] = experiment: Reduction in serum LDL-C level hyperlipidemic hamster relative to untreated control; type: functional, Cricetinae; parameters: scale not given: the % may be the effect or the level left
Homo sapiens [8] = experiment: Reduction in total cholesterol level in hypercholesterolemic patient dosed for 3 months; type: functional; parameters: scale not given: the % may be the effect or the level left
Hamster [9] = experiment: Increase in hepatic LDLR protein hyperlipidemic hamster relative to untreated control; type: functional, Cricetinae
Hamster [10] = experiment: Increase in hepatic LDLR mRNA hyperlipidemic hamster relative to untreated control; type: functional, Cricetinae
Sus scrofa [11] = species: Sus scrofa; experiment: Reduction in LDL in swine with metabolic syndrome and myocardial ischemia; type: functional; parameters: scale not given: the % may be the effect or the level left
Sus scrofa [12] = species: Sus scrofa; experiment: Reduction in total cholesterol in swine with metabolic syndrome and myocardial ischemia; type: functional; parameters: scale not given: the % may be the effect or the level left
Rattus norvegicus [13] = experiment: Hypercholesterolemic activity in male rat assessed as reduction in cholesterol level at 80 mg/kg/day for 7 days; type: functional; parameters: scale not given: the % may be the effect or the level left
Rattus norvegicus [14] = experiment: Hypercholesterolemic activity in male rat assessed as reduction in triglyceride level at 80 mg/kg/day for 7 days; type: functional; parameters: scale not given: the % may be the effect or the level left
Rattus norvegicus [15] = experiment: Hypercholesterolemic activity in rat assessed as reduction in cholesterol level at 80 mg/kg/day for 8 days; type: functional; parameters: scale not given: the % may be the effect or the level left
Rattus norvegicus [16] = experiment: Hypercholesterolemic activity in rat assessed as reduction in plasma cholesterol level at 4 to 25 mg/kg/day; type: functional; parameters: scale not given: the % may be the effect or the level left
Rattus norvegicus [17] = experiment: Hypercholesterolemic activity in rat assessed as reduction in triglyceride level at 4 to 25 mg/kg/day; type: functional; parameters: scale not given: the % may be the effect or the level left
Rattus norvegicus [18] = experiment: Increase in HDL-C level in rat dosed for 7 days; type: functional
Rattus norvegicus [19] = experiment: Reduction in LDL-C level in rat dosed for 7 days; type: functional; parameters: scale not given: the % may be the effect or the level left
Homo sapiens [20] = species: Homo sapiens; experiment: Reduction in triglyceride level in patient with moderate hypercholesterolemia at 20 to 80 mg/day; type: functional; parameters: scale not given: the % may be the effect or the level left
Homo sapiens [21] = species: Homo sapiens; experiment: Reduction in total cholesterol level in patient with moderate hypercholesterolemia at 20 to 80 mg/day; type: functional; parameters: scale not given: the % may be the effect or the level left
Homo sapiens [22] = species: Homo sapiens; experiment: Reduction in LDL-C level in patient with moderate hypercholesterolemia at 20 to 80 mg/day; type: functional; parameters: scale not given: the % may be the effect or the level left
Homo sapiens [23] = species: Homo sapiens; experiment: Increase in HDL-C level in patient with moderate hypercholesterolemia at 20 to 80 mg/day; type: functional
Hamster [24] = experiment: Antidyslipidemic activity in HFD-fed dyslipidemic hamster assessed as reduction in serum total cholesterol at 50 mg/kg; type: functional, Cricetinae; parameters: scale not given: the % may be the effect or the level left
Hamster [25] = experiment: Antidyslipidemic activity in HFD-fed dyslipidemic hamster assessed as reduction in serum triglyceride level at 50 mg/kg; type: functional, Cricetinae; parameters: scale not given: the % may be the effect or the level left
Hamster [26] = experiment: Antidyslipidemic activity in HFD-fed dyslipidemic hamster assessed as reduction in serum glycerol at 50 mg/kg; type: functional, Cricetinae; parameters: scale not given: the % may be the effect or the level left
Hamster [27] = experiment: Antidyslipidemic activity in HFD-fed dyslipidemic hamster assessed as HDLC/total cholesterol at 50 mg/kg; type: functional, Cricetinae
Homo sapiens [28] = species: Homo sapiens; experiment: Reduction in LDL-C level in patient with heterozygous familial hypercholesterolaemia at 40 mg/day; type: functional; parameters: scale not given: the % may be the effect or the level left
Homo sapiens [29] = species: Homo sapiens; experiment: Increase in HDL-C level in patient with heterozygous familial hypercholesterolaemia at 40 mg/day; type: functional
Homo sapiens [30] = species: Homo sapiens; experiment: Reduction in triglyceride level in patient with heterozygous familial hypercholesterolaemia at 40 mg/day; type: functional; parameters: scale not given: the % may be the effect or the level left

Molecule COc1cc(/C=C/C(=O)CC(=O)/C=C/c2ccc(O)c(OC)c2)ccc1O [CURCUMIN] has an Activity (Homo sapiens [1]) of 29%, an Activity (Homo sapiens [2]) of 12% and an Activity (Homo sapiens [3]) of 33%.

COc1ccc2cc3[n+](cc2c1OC)CCc1cc2c(cc1-3)OCO2 [BERBERINE] gave an Activity (Hamster [4]) of 40%, an Activity (Homo sapiens [5]) of 25% and an Activity (Homo sapiens [6]) of 35%. The Activity (Hamster [7]) was 42%, the Activity (Homo sapiens [8]) was 29% and the “fold change (FC)” value (Hamster [9]) was 2.6. For the same molecule, the “fold change (FC)” value (Hamster [10]) was 3.5.

Work on Oc1ccc(/C=C/c2cc(O)cc(O)c2)cc1 [RESVERATROL] yielded an Activity (Sus scrofa [11]) of 30% and an Activity (Sus scrofa [12]) of 33%.

Work on C/C=C/c1cc(OC)c(OC)cc1OC [TRANS-ASARONE] yielded an Activity (Rattus norvegicus [13]) of 57%, an Activity (Rattus norvegicus [14]) of 42% and an Activity (Rattus norvegicus [15]) of 38%. For the same molecule, the Activity (Rattus norvegicus [16]) was 40 - 60% and the Activity (Rattus norvegicus [17]) was 40 - 60%.

For C/C=C/c1cc(OC)c(OC)c(OC)c1, the Activity (Rattus norvegicus [18]) was 56% and the Activity (Rattus norvegicus [19]) was 47%.

With CC[C@H](C)C(=O)O[C@H]1C[C@@H](C)C=C2C=C[C@H](C)[C@H](CC[C@@H]3C[C@@H](O)CC(=O)O3)[C@H]21 [LOVASTATIN] the Activity (Homo sapiens [20]) was 10 - 19%, the Activity (Homo sapiens [21]) was 17 - 29% and the Activity (Homo sapiens [22]) was 24 - 40%. The Activity (Homo sapiens [23]) was 6.6 - 9.5%.

CC(C)=CCC/C(C)=C/CC/C(C)=C/CC/C(C)=C\CC/C(C)=C\CC/C(C)=C\CC/C(C)=C\CC/C(C)=C\CC/C(C)=C\CC/C(C)=C\CC/C(C)=C\CC/C(C)=C\CO showed an Activity (Hamster [24]) of 25%, an Activity (Hamster [25]) of 42% and an Activity (Hamster [26]) of 12%. It also gave an Activity (Hamster [27]) of 26%.

With CCC(C)(C)C(=O)O[C@H]1C[C@@H](C)C=C2C=C[C@H](C)[C@H](CC[C@@H]3C[C@@H](O)CC(=O)O3)[C@H]21 [SIMVASTATIN] the Activity (Homo sapiens [28]) was 43 - 45%, the Activity (Homo sapiens [29]) was 10 - 13% and the Activity (Homo sapiens [30]) was 21 - 31%.
